What was measured:
human ASCT2 = biological target: T1, human ASCT2 (Homo sapiens, UniProt Q15758); experiment: transport into HEK cells expressing ASCT2; assay type: cell-based; conditions: ASCT2-expressing HEK cells, FIG. 6B
T1 construct: expressed in transfected cells; host or cells: HEK (human embryonic kidney) cells
T1 sequence (Q15758 1-541): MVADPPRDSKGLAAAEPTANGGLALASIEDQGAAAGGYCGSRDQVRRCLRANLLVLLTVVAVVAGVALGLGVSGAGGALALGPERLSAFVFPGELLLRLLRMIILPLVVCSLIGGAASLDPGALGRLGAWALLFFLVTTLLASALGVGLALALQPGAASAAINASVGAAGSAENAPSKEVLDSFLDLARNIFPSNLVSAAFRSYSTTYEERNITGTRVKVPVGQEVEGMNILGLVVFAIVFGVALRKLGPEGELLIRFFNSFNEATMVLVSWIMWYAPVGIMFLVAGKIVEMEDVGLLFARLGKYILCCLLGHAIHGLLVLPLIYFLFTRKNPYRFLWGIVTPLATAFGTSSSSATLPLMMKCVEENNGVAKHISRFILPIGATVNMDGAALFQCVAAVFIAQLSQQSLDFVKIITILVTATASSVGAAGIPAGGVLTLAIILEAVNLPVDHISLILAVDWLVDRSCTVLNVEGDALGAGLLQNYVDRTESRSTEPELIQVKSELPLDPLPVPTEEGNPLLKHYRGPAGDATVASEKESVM
Experimental: (§1) Cell-based assays: the transport of [^3H]L- or D-serine was measured in primary cultures of rat hippocampal astrocytes or in human embryonic kidney (HEK) cells expressing ASCT transporter sub-types. For the astrocyte assays, cells were plated on either 24- or 96-well plates at a density of 50,000 cells per well. For the HEK assays, cells were plated on coated 96-well plates at a density of 80,000 cells/well. Assays were conducted in duplicate at room temperature in assay buffer consisting of: NaCl: 150 mM, KCl: 2 mM; MgCl2: 1 mM; CaCl2: 1 mM; HEPES: Tris buffer: 10 mM, pH7.4. To assess the sodium-dependence of transport, NaCl was replaced in the assay buffer by equimolar choline chloride. Following aspiration of growth medium and 2 washes with assay buffer, cells were incubated with [^3H]L- or D-serine at a final concentration of 1 μM for 5 min (astrocytes) or 1 min (HEK cells), after which the incubation medium was aspirated and the cells washed twice with ice-cold assay buffer. Cells containing radiolabel were solubilized in 100 μl of 1% Triton-X100 and an aliquot counted in a beta counter. IC50 values were determined over a range of at least 6 concentrations and derived from curve-fitting algorithms available in Graph Pad Prism 4.

astrocytes = experiment: [3H]L-serine transport into astrocytes; assay type: cell-based, rat; conditions: FIG. 6B
Experimental: as §1

ASCT1 = biological target: T2, ASCT1 (Homo sapiens, UniProt P43007); experiment: transport into HEK cells expressing ASCT1; assay type: cell-based; set-up: expressed in transfected cells; host or cells: HEK (human embryonic kidney) cells
T2 sequence (P43007 1-532): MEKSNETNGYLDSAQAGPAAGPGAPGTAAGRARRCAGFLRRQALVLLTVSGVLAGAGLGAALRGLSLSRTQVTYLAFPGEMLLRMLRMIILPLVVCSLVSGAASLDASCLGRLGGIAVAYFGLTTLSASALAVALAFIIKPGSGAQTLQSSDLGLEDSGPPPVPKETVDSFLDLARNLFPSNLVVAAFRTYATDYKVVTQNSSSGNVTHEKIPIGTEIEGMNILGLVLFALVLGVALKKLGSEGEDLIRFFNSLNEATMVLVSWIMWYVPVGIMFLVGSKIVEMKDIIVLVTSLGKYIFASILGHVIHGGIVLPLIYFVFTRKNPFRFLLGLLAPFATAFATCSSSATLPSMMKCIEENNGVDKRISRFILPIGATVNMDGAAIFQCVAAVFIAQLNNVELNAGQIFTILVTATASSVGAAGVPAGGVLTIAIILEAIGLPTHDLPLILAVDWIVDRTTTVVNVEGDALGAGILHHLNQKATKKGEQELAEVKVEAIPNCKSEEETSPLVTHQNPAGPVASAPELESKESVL
Experimental: as §1

N[C@H](CO)C(=O)O [D-serine]
inhibition of [3H]L-serine transport (human ASCT2): completely inhibited | inhibition of [3H]L-serine transport (astrocytes): completely inhibited | inhibition of [3H]L-serine transport (ASCT1; ASCT1-expressing HEK cells, FIG. 6B): completely inhibited | transport of [3H]D-serine into ASCT1-expressing HEK cells (ASCT1; with and without extracellular sodium, FIG. 6A): transported into ASCT1-expressing HEK cells in a sodium-dependent manner

— US9415031B2, “D-serine transporter inhibitors as pharmaceutical compositions for the treatment of visual system disorders” (Allergan, Inc., priority 2011, dated 2016)
